Source: patent publication US9267949B2, “Alkylamino BODIPY dyes as selective fluorescent probes for proteins and mouse embryonic stem cells” (National University of Singapore, priority 2011, dated 2016)

How the values were obtained:
[1] = Quantum yield measurements; type: physicochemical; conditions: referred to Rhodamine B in EtOH, excitation 510 nm, emission integrated 540-800 nm
Outline: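 Integrated fluorescence emission from 540 to 800 nm was referenced to Rhodamine B in EtOH (Φ=0.70) after excitation at 510 nm. Quantum yield was calculated with correction for solvent refractive index and absorbance at the excitation wavelength.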

[2] = Spectroscopic properties of the BDM library (absorbance and emission maxima); type: physicochemical
[3] = in EtOH, excitation at 510 nm; cited from earlier work

| Compound | φ (quantum yield) [1] | λmax (ABS) [2] | λmax (EM) [2] | Quantum yield of standard (ΦRho-B) [3] |
| --- | --- | --- | --- | --- |
| CC1=CC(/C=C/c2cc(C)c(C)cc2C)=[N+]2C1=C(CCN)c1cccn1[B-]2(F)F [BDM-343] | 0.28 | 559 nm | 577 nm |  |
| CC1=CC(/C=C/c2cccc(OC(F)(F)C(F)F)c2)=[N+]2C1=C(CCN)c1cccn1[B-]2(F)F [BDM-345] | 0.22 | 551 nm | 564 nm |  |
| COc1ccc(/C=C/C2=[N+]3C(=C(CCN)c4cccn4[B-]3(F)F)C(C)=C2)c(OC)c1C [BDM-347] | 0.57 | 566 nm | 591 nm |  |
| COc1ccc(/C=C/C2=[N+]3C(=C(CCN)c4cccn4[B-]3(F)F)C(C)=C2)cc1[N+](=O)[O-] [BDM-350] | 0.14 | 556 nm | 571 nm |  |
| CC1=CC(/C=C/c2cccc(N3CCCCC3)c2[N+](=O)[O-])=[N+]2C1=C(CCN)c1cccn1[B-]2(F)F [BDM-356] | 0.03 | 573 nm | 682 nm |  |
| CC1=CC(/C=C/c2cccc(N3CCCC3)c2[N+](=O)[O-])=[N+]2C1=C(CCN)c1cccn1[B-]2(F)F [BDM-357] | 0.04 | 585 nm | 687 nm |  |
| COc1ccc(/C=C/C2=[N+]3C(=C(CCN)c4cccn4[B-]3(F)F)C(C)=C2)c(F)c1 [BDM-359] | 0.83 | 559 nm | 574 nm |  |
| CC1=CC(/C=C/c2ccc(SC(F)(F)F)cc2)=[N+]2C1=C(CCN)c1cccn1[B-]2(F)F [BDM-363] | 0.51 | 553 nm | 564 nm |  |
| CC1=CC(/C=C/c2ccccc2OC(F)(F)F)=[N+]2C1=C(CCN)c1cccn1[B-]2(F)F [BDM-365] | 0.24 | 549 nm | 563 nm |  |
| CC1=CC(/C=C/c2ccsc2)=[N+]2C1=C(CCN)c1cccn1[B-]2(F)F [BDM-369] | 0.30 | 554 nm | 570 nm |  |
| CC1=CC(/C=C/c2ccc(-c3ccc(Cl)cc3)o2)=[N+]2C1=C(CCN)c1cccn1[B-]2(F)F [BDM-371] | 0.03 | 590 nm | 630 nm |  |
| COc1ccc(/C=C/C2=[N+]3C(=C(CCN)c4cccn4[B-]3(F)F)C(C)=C2)c(Cl)c1OC [BDM-372] | 0.55 | 561 nm | 578 nm |  |
| CC1=CC(/C=C/c2ccc(N(C)C)c3ccccc23)=[N+]2C1=C(CCN)c1cccn1[B-]2(F)F [BDM-377] | 0.04 | 586 nm |  |  |
| CC1=CC(/C=C/c2ccc(OCc3ccc(F)cc3)cc2)=[N+]2C1=C(CCN)c1cccn1[B-]2(F)F [BDM-378] | 0.41 | 563 nm | 585 nm |  |
| CCN(CC)c1ccc2c(-c3ccccc3C(=O)O)c3ccc(=[N+](CC)CC)cc-3oc2c1.[Cl-] [Rhodamine B] |  |  |  | 0.70 |

Further lines, with some results ahead:

| φ (quantum yield) [1] | λmax (ABS) [2] | λmax (EM) [2] | Compound | Quantum yield of standard (ΦRho-B) [3] |
| --- | --- | --- | --- | --- |
| 0.32 | 551 nm | 565 nm | CC1=CC(/C=C/c2ccccc2I)=[N+]2C1=C(CCN)c1cccn1[B-]2(F)F [BDM-384] |  |
| 0.31 | 554 nm | 563 nm | CC1=CC(/C=C/c2cccc(C=O)c2)=[N+]2C1=C(CCN)c1cccn1[B-]2(F)F [BDM-391] |  |
| 0.10 | 570 nm | 614 nm | CCOc1cc(/C=C/C2=[N+]3C(=C(CCN)c4cccn4[B-]3(F)F)C(C)=C2)ccc1O [BDM-397] |  |
| 0.85 | 565 nm | 590 nm | COC(=O)c1cc(OC)cc(OC)c1/C=C/C1=[N+]2C(=C(CCN)c3cccn3[B-]2(F)F)C(C)=C1 [BDM-401] |  |
| 0.12 | 558 nm | 570 nm | CC1=CC(/C=C/c2ccc(Br)cc2)=[N+]2C1=C(CCN)c1cccn1[B-]2(F)F [BDM-409] |  |
| 0.12 | 562 nm | 576 nm | CC1=CC(/C=C/c2ccc(-c3ccccc3)c(F)c2)=[N+]2C1=C(CCN)c1cccn1[B-]2(F)F [BDM-425] |  |
| 0.23 | 564 nm | 586 nm | CCOc1ccc(/C=C/C2=[N+]3C(=C(CCN)c4cccn4[B-]3(F)F)C(C)=C2)cc1 [BDM-429] |  |
| 0.99 | 565 nm | 592 nm | CC1=CC(/C=C/c2c(C)nn(C)c2C)=[N+]2C1=C(CCN)c1cccn1[B-]2(F)F [BDM-430] |  |
| 0.39 | 555 nm | 565 nm | CC1=CC(/C=C/c2ccc(Oc3ccc(C(C)(C)C)cc3)cc2)=[N+]2C1=C(CCN)c1cccn1[B-]2(F)F [BDM-435] |  |
| 0.21 | 555 nm | 566 nm | CC1=CC(/C=C/c2ccc(Cl)c(F)c2)=[N+]2C1=C(CCN)c1cccn1[B-]2(F)F [BDM-437] |  |
| 0.37 | 563 nm | 589 nm | CC1=CC(/C=C/c2cc3ccccc3c3ccccc23)=[N+]2C1=C(CCN)c1cccn1[B-]2(F)F [BDM-440] |  |
